# Assay results: ChEMBL document CHEMBL1139280, “Potent inhibitors of HCV-NS3 protease derived from boronic acids” (Bioorg Med Chem Lett, 2009)
# Experiments:
# [1] = Inhibition of HCV NS3 protease assessed as hydrolysis of chromogenic 4-phenylazophenyl ester from peptide fragment Ac-DTEDVVP(Nva)-O-4-PAP by spectrophotometry; design: species or system Hepacivirus hominis
# [2] = tested on: Hepatitis C virus; assay: Inhibition of HCV subgenomic RNAs replication in human hepatoma cells; type: functional, Hepacivirus hominis
Structure (SMILES),Ki [1] [µM],EC90 [2] [µM]
CC(C)(C)NC(=O)N[C@H](C(=O)N1C[C@H]2[C@@H](C1C(=O)N[C@@H](CC1CCC1)B1O[C@@H]3C[C@@H]4C[C@@H](C4(C)C)[C@]3(C)O1)C2(C)C)C(C)(C)C (stereo partly drawn),0.01,> 5
CC[C@H](NC(=O)[C@@H]1[C@@H]2[C@H](CN1C(=O)[C@@H](NC(=O)N[C@H](CN(C)S(C)(=O)=O)C(C)(C)C)C(C)(C)C)C2(C)C)B(O)O,0.052,> 5
CN(C[C@@H](NC(=O)N[C@H](C(=O)N1C[C@H]2[C@@H]([C@H]1C(=O)N[C@@H](CC1CCC1)B(O)O)C2(C)C)C(C)(C)C)C(C)(C)C)S(C)(=O)=O,0.0002,> 5
CC[C@H](NC(=O)[C@@H]1[C@@H]2[C@H](CN1C(=O)[C@@H](NC(=O)NC(C)(C)C)C(C)(C)C)C2(C)C)B(O)O,0.01,> 5
CC[C@H](NC(=O)C1[C@@H]2[C@H](CN1C(=O)[C@@H](NC(=O)NC(C)(C)C)C(C)(C)C)C2(C)C)B1O[C@@H]2C[C@@H]3C[C@@H](C3(C)C)[C@]2(C)O1 (stereo partly drawn),0.38,> 5
CC[C@H](NC(=O)[C@@H]1[C@@H]2[C@H](CN1C(=O)[C@@H](NC(=O)NC(C)(C)C)C(C)(C)C)C2(C)C)B1O[C@@H]2C[C@@H]3C[C@@H](C3(C)C)[C@]2(C)O1,0.5,> 5
CN(C[C@@H](NC(=O)N[C@H](C(=O)N1C[C@H]2[C@@H]([C@H]1C(=O)N[C@@H](CC1CCC1)B1O[C@@H]3C[C@@H]4C[C@@H](C4(C)C)[C@]3(C)O1)C2(C)C)C(C)(C)C)C(C)(C)C)S(C)(=O)=O,0.0005,> 5
CC[C@H](NC(=O)[C@@H]1[C@@H]2[C@H](CN1C(=O)[C@@H](NC(=O)N[C@H](CN(C)S(C)(=O)=O)C(C)(C)C)C(C)(C)C)C2(C)C)B1O[C@@H]2C[C@@H]3C[C@@H](C3(C)C)[C@]2(C)O1,0.034,> 5
CC(C)(C)NC(=O)N[C@H](C(=O)N1C[C@H]2[C@@H]([C@H]1C(=O)NC(CC1CCC1)C(=O)C(N)=O)C2(C)C)C(C)(C)C (stereo partly drawn) [BOCEPREVIR],0.014,0.35
